Assay results: the supplement of paper PMC10307832

Columns and labels:
Assay in all cases: relative viability (nuclei count vs DMSO), 5 days (fraction); higher = more cells survive
TPCA-1 = compound: C1=CC(=CC=C1C2=CC(=C(S2)NC(=O)N)C(=O)N)F [TPCA-1]
Outline: (§1)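 After an overnight hold at 37 °C, lung cancer cell lines in 1536-well plates were pinned with five library-drug doses (not always all listed), each √10 from the next, on vehicle-anchored plates. The cells stayed 5 days without fresh medium, then a one-step fix, permeabilisation and Hoechst stain preceded 4× imaging and MetaXpress nuclear counts. A plate passed only with control CV under 25% and at least one doubling. Viability is the median, over plates, of treated-well nuclei relative to vehicle-well nuclei.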

[1] = compound: C1/C(=C\C2=CC=CS2)/C(=O)/C(=C/C3=CC=CS3)/C1
Outline: as §1

Lestaurtinib = compound: C[C@]12O[C@H](C[C@]1(O)CO)n1c3ccccc3c3c4c(c5c6ccccc6n2c5c31)CNC4=O [Lestaurtinib]
Outline: as §1

[2] = compound: C1/C(=C\C2=CC=CS2)/C(=O)/C(=C/C3=CC=CS3)/C1 + COc1cc2c(Oc3ccc(NC(=O)C4(C(=O)Nc5ccc(F)cc5)CC4)cc3F)ccnc2cc1OCCCN1CCOCC1 [Foretinib] (partner 0.25 µM)
Outline: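 For relative viability, nuclei counts in treated wells were divided by those in vehicle wells. Lung cancer cell lines had been pin-tool dosed in 1536-well plates the day after seeding and cultured for 5 days, then fixed and stained in one step (final 0.05% Triton X-100, 1% formaldehyde, 1 ug/ml Hoechst) and imaged at 4×. Doses were one drug alone or a fixed anchor-drug dose plus five library-drug doses (not always all listed) in √10 steps, and values are duplicate-plate medians.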

| Cell Line | relative viability (TPCA-1; 0.04 µM) | relative viability (TPCA-1; 0.1265 µM) | relative viability (TPCA-1; 0.4 µM) | relative viability (TPCA-1; 1.265 µM) | relative viability (TPCA-1; 4 µM) | relative viability ([1]; 0.2 µM) | relative viability ([1]; 0.6325 µM) | relative viability ([1]; 2 µM) | relative viability ([1]; 6.325 µM) | relative viability ([1]; 20 µM) | relative viability (Lestaurtinib; 0.005 µM) | relative viability (Lestaurtinib; 0.01581 µM) | relative viability (Lestaurtinib; 0.05 µM) | relative viability (Lestaurtinib; 0.1581 µM) | relative viability (Lestaurtinib; 0.5 µM) | relative viability ([2]; first compound 0.2 µM) | relative viability ([2]; first compound 0.6325 µM) | relative viability ([2]; first compound 2 µM) | relative viability ([2]; first compound 6.325 µM) | relative viability ([2]; first compound 20 µM) |
| --- | --- | --- | --- | --- | --- | --- | --- | --- | --- | --- | --- | --- | --- | --- | --- | --- | --- | --- | --- | --- |
| NCI-H2405 | 1.08 | 0.944 | 1.09 | 0.816 | 0.842 | 1.01 | 0.988 | 1.14 | 0.959 | 1.02 | 0.97 | 1.08 | 0.974 | 0.822 | 0.532 | 1.11 | 1.03 | 1.17 | 0.948 | 1.12 |
| HOP-62 | 1.02 | 0.97 | 0.956 | 0.943 | 0.852 | 1.1 | 1.02 | 1.01 | 0.928 | 1.01 | 1.02 | 1.11 | 0.921 | 1.12 | 0.452 | 1.08 | 1.07 | 1.07 | 0.922 | 1.09 |
| NCI-H650 | 1.03 | 0.823 | 0.946 | 0.488 | 0.557 | 0.973 | 0.885 | 0.956 | 0.984 | 0.906 | 0.953 | 1.03 | 0.844 | 0.46 | 0.403 | 1.02 | 0.926 | 0.933 | 0.945 | 0.999 |
| NCI-H358 | 1.34 | 0.832 | 0.984 | 0.767 | 0.401 | 1.09 | 0.915 | 0.963 | 0.754 | 0.933 | 0.839 | 0.748 | 0.493 | 0.397 | 0.207 | 0.668 | 0.742 | 0.761 |  | 0.631 |
| BEN | 1.01 | 0.873 | 1.05 | 1.08 | 0.774 | 0.935 | 1 | 1.11 | 0.848 | 0.934 | 0.993 | 1.11 | 0.888 | 0.8 | 0.278 | 0.7 | 0.646 | 0.78 | 0.745 | 0.655 |
| SW 1573 | 1.18 | 0.91 | 0.985 | 0.947 | 0.858 | 1.05 | 0.996 | 1.08 | 0.891 | 0.99 | 1.05 | 0.989 | 0.782 | 0.571 | 0.401 | 0.879 | 0.965 | 0.939 | 0.843 | 0.825 |
| ChaGo-K-1 | 1.09 | 0.927 | 0.965 | 0.925 | 0.637 | 0.997 | 1.02 | 1.02 | 0.787 | 0.535 | 1 | 1.08 | 0.906 | 1.01 | 0.437 | 0.912 | 1.01 | 0.857 | 0.797 | 0.41 |
| SK-MES-1 | 1.06 | 0.864 | 0.976 | 0.881 | 0.604 | 1.05 | 1.03 | 1.02 | 0.906 | 0.972 | 1.02 | 0.931 | 0.57 | 0.394 | 0.259 | 0.949 | 1 | 0.925 | 0.701 | 0.848 |
| NCI-H1755 | 0.951 | 0.941 | 1.01 | 0.922 | 0.765 | 1.02 | 0.987 | 1.04 | 0.807 | 0.999 | 1.02 | 1.05 | 0.965 | 0.736 | 0.351 | 0.931 | 0.959 | 1.01 | 0.817 | 0.928 |
| NCI-H2023 | 1.16 | 0.946 | 1.13 | 0.85 | 0.509 | 1 | 1.04 | 1.07 | 0.827 | 0.837 | 1.02 | 0.978 | 0.874 | 0.746 | 0.201 |  | 0.949 | 0.998 | 0.82 | 1.05 |
| LC-2-ad | 1.09 | 0.902 | 1.01 | 0.901 | 0.377 | 1.02 | 1.04 | 1.07 | 0.868 | 0.958 | 1.01 | 1.15 | 0.757 | 0.54 | 0.301 | 0.971 | 0.941 | 0.99 | 0.817 | 0.89 |
| NCI-H1666 | 1.09 | 0.972 | 0.982 | 0.973 | 0.904 | 1.02 | 1.02 | 0.922 | 0.919 | 0.955 | 1.11 | 1.13 | 1.31 | 0.986 | 0.894 | 0.99 | 1.01 | 0.965 | 0.865 | 0.958 |
| EBC-1 | 1.15 | 0.975 | 0.991 | 0.973 | 0.988 | 1.08 | 1.07 | 1.01 | 0.888 | 0.972 | 1.04 | 1.15 | 0.818 | 0.756 | 0.428 | 0.112 | 0.091 | 0.0946 | 0.111 | 0.0934 |
| 201T | 1.02 | 0.951 | 1 | 1.01 | 0.835 | 1.01 | 0.963 | 1.06 | 0.935 | 0.935 | 1.04 | 1.08 | 0.928 | 1.04 | 0.678 | 1 | 1.09 | 1.25 | 0.752 | 1.02 |
| NCI-H2009 | 1.12 | 1 | 1.01 | 0.859 | 0.834 | 1.03 | 0.98 | 0.972 | 0.936 | 0.994 | 0.999 | 1.04 | 0.82 | 0.762 | 0.366 | 1.31 | 1.23 | 1.2 | 1.2 | 1.21 |
| NCI-H1395 | 1.01 | 0.916 | 1.02 | 0.811 | 0.703 | 0.912 | 0.876 | 1.11 | 0.833 | 0.945 | 0.886 | 1.04 | 0.759 | 0.759 | 0.462 | 0.992 | 0.945 | 1.18 | 0.861 | 1.01 |
